Source: US11512053B2, “Arginine methyltransferase inhibitors and uses thereof” (priority 2013, dated 2022)
Like-named read-outs stand apart in the source and are kept apart here.

Target: T1, human CARM1 (PRMT4) (Flag- and His-tagged) (Homo sapiens, UniProt Q86X55)
T1 construct: Flag-CARM1-His; made in house; host or cells: HEK 293F cells (BacMam baculovirus)
T1 sequence (Q86X55 1-585 isoform Q86X55-1): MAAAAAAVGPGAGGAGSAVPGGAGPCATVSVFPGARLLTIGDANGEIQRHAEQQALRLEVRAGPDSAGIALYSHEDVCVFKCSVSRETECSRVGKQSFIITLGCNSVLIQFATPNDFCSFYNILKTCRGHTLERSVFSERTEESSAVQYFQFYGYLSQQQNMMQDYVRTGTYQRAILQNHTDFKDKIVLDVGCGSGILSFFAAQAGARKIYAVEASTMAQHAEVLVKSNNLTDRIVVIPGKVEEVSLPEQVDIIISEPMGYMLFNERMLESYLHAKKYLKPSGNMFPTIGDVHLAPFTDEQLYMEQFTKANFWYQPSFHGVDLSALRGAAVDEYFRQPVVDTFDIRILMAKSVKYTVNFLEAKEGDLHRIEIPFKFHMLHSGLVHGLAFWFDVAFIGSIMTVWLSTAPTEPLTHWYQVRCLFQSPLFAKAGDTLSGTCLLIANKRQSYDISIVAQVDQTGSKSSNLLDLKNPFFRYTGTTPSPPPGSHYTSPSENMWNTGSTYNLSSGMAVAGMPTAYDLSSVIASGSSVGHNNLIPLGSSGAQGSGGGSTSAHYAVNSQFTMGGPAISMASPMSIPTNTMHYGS
Assay: CARM1 Biochemical Assay (3H-SAM Flashplate, peptide substrate)
Text: General Materials. S-adenosylmethionine (SAM), S-adenosylhomocysteine (SAH), bicine, Tween20, dimethylsulfoxide (DMSO), bovine skin gelatin (BSG), sodium butyrate and Tris(2-carboxyethyl)phosphine hydrochloride solution (TCEP) were purchased from Sigma-Aldrich at the highest level of purity possible. ^3H-SAM was purchase from American Radiolabeled Chemicals with a specific activity of 80 Ci/mmol. 384-well streptavidin Flashplates were purchased from PerkinElmer.
Substrates. Peptide representative of human histone H3 residues 16-30 was synthesized with an N-terminal linker-affinity tag motif and a C-terminal amide cap by 21st Century Biochemicals. The peptide was purified by high-performance liquid chromatography (HPLC) to greater than 95% purity and confirmed by liquid chromatography mass spectrometry (LC-MS). The sequence was Biot-Ahx-[…]-amide and contained a monomethylated arginine at position 26 (SEQ ID NO.:14).
Molecular Biology: Human CARM1 (PRMT4) (NM_199141.1) transcript clone was amplified from an HEK 293 cDNA library, incorporating a flanking 5′ sequence encoding a FLAG tag ([…]) (SEQ ID NO.:6) fused directly to Ala 2 of CARM1 and 3′ sequence encoding a hexa His sequence ([…]) (SEQ ID NO.:15) fused directly to Ser 608. The gene sequence encoding isoform1 containing a deletion of amino acids 539-561 was amplified subsequently and subcloned into pFastBacMam (Viva Biotech).
Protein Expression. Recombinant baculovirus were generated according to Bac-to-Bac kit instructions (Life Technologies). […] Infections were carried out at 37° C. for 48 hours, harvested by centrifugation, and stored at −80° C. for purification.
Protein Purification. […] Column was washed with 500 mM NaCl in buffer A and Flag-CARM1-His was eluted with 200 ug/ml FLAG peptide in buffer A. Pooled fractions were dialyzed in 20 mM Tris, 150 mM NaCl, 5% glycerol and 1 mM DTT, pH 7.8. The purity of recovered protein was 94.
General Procedure for CARM1 Enzyme Assays on Peptide Substrates. The assays were all performed in a buffer consisting of 20 mM Bicine (pH=7.6), 1 mM TCEP, 0.005% BSG, and 0.002% Tween 20, prepared on the day of use. Compounds in 100% DMSO (1 ul) were spotted into a polypropylene 384-well V-bottom plates (Greiner) using a Platemate Plus outfitted with a 384-channel head (Thermo Scientific). DMSO (1 ul) was added to Columns 11, 12, 23, 24, rows A-H for the maximum signal control and 1 ul of SAH, a known product and inhibitor of CARM1, was added to columns 11, 12, 23, 24, rows I-P for the minimum signal control. A cocktail (40 ul) containing the CARM1 enzyme was added by Multidrop Combi (Thermo-Fisher). The compounds were allowed to incubate with CARM1 for 30 min at room temperature, then a cocktail (10 ul) containing ^3H-SAM and peptide was added to initiate the reaction (final volume=51 ul). The final concentrations of the components were as follows: CARM1 was 0.25 nM, ^3H-SAM was 30 nM, peptide was 250 nM, SAH in the minimum signal control wells was 1 mM, and the DMSO concentration was 2%. The assays were stopped by the addition of non-radiolabeled SAM (10 ul) to a final concentration of 300 uM, which dilutes the ^3H-SAM to a level where its incorporation into the peptide substrate is no longer detectable. 50 ul of the reaction in the 384-well polypropylene plate was then transferred to a 384-well Flashplate and the biotinylated peptides were allowed to bind to the streptavidin surface for at least 1 hour before being washed once with 0.1% Tween20 in a Biotek ELx405 plate washer. The plates were then read in a PerkinElmer TopCount plate reader to measure the quantity of ^3H-labeled peptide bound to the Flashplate surface, measured as disintegrations per minute (dpm) or alternatively, referred to as counts per minute (cpm).
Where dpm=disintegrations per minute, cmpd=signal in assay well, and min and max are the respective minimum and maximum signal controls. […]

- IC50: 1.01 to 3 µM
- IC50 (single experiment or average of multiple experiments): 3 µM
SMILES: CN(CCN)Cc1c[nH]nc1CCc1ccccc1 [Compound 9]
